Assay results reported in US20240050407A1, “METHODS FOR DELAY OF EJACULATION IN HUMAN MALES” (priority 2020, published 2024).

Tests used:
Assay type in all cases: in vivo
[1] = tested on: para-chloroamphetamine (PCA)-induced ejaculation model in anaesthetized Wistar rats; experiment: Rat para-chloroamphetamine (PCA)-induced ejaculation model (ejaculation, latency, seminal vesicle pressure); conditions: for Seminal vesicle pressure response vs vehicle, FIG. 10, FIG. 11 / Ejaculation latency vs vehicle, FIG. 9: 20 mg/kg or 10 mg/kg IP 1 h before PCA
Protocol: Experiments were performed to assess the effect of an acute treatment of alkaloids, mesembrine, mesembrenone, mesembrenol and mesembranol, at their maximal tolerable dose (MTD) on ejaculation latency in a para-chloroamphetamine (PCA)-induced ejaculation model in anaesthetized Wistar rats.
Adult male Wistar rats (Charles-River, France, 10-11 weeks old) were housed at least 10 days prior to the beginning of the experiments with free access to regular diet and water and maintained on an inversed 12 hour dark/light cycle (9:00/21:00). All procedures were performed in accordance with the legislation on the use of laboratory animals (NIH publication N°85-23, revised 1996) and Animal Care Regulations in force in France as of 1988 (authorization from competent French Ministry of Agriculture—Agreement No. B78-423-1, July 2017).
Rats received a single administration by intraperitoneal (IP) route of either vehicle, mesembrine, mesembrenone, mesembrenol, or mesembranol 1 hour before the in vivo evaluation of PCA-induced ejaculation as follows:
Part 1: Rats received a single IP injection of either vehicle control (0.5% hydroxypropyl methylcellulose (HPMC) in sterile water, n=10), mesembrine at 20 mg/kg (n=9), 10 mg/kg (n=11), 2 mg/kg (n=12), 200 μg/kg (n=12) and 20 μg/kg (n=10) 1 hour prior to administration of PCA. Treatment groups for Part I are outlined below in Table 2:
Part 2: Rats received a single IP injection of mesembrenone at 20 mg/kg (n=10). Treatment groups for Part 2 are outlined in Table 3.
Part 3: Rats received single IP injection of mesembrenol at 20 mg/kg (n=4) or 10 mg/kg (n=6) or mesembranol at 20 mg/kg (n==6) or 10 mg/kg (n=6). Treatment for Part 3 are outlined in Table 4.
After treatment administration, the rats underwent an evaluation of their ejaculation function induced by PCA administration. Thus, the expulsion of seminal plug(s) and seminal vesicle pressure (SVP) increase was evaluated. At the end of experimental period, the rats were euthanized by an intracardiac injection of pentobarbital (Eutasol®, Centravet, France).
Drug Preparation. Alkaloids were diluted to a 100 mg/mL final concentration (stock solution) and mixed by vortex. Then, aliquots per rat were prepared and stored at −20° C. until use. The day of experiment, 1 aliquot per rat was thawed and diluted to the desired concentration. The volume of administration was either 2 mL/kg for the IP administration or 5 mL/kg for the oral gavage, in line with good practice for administration volume in rat.
Ejaculation was induced by intraperitoneal administration of P-chloroamphetamine (PCA) at 5 mg/kg in anesthetized rats according to previously described methods (Clement el al., Role of peripheral innervation in p-chloroamphetamine-induced ejaculation in anesthetized rats. J Androl 2006; 27:381-389). PCA is an amphetamine derivative that liberates catecholamines and serotonin from monoaminergic nerve terminals. Systemic administration of PCA has been reported to induce ejaculation in both conscious (Humphries et al, 1981; Rènyi, 1985) and anesthetized (Yonezawa et al, 2000) rats.
Seminal vesicle pressure (SW) was measured as a physiological marker for the emission phase of ejaculation (Clement P, Giuliano F. Physiology and Pharmacology of Ejaculation. Basic Clint Pharmacol Toxicol 201.6 119 Suppl 3:18-25),
Rats were anesthetized and their temperature maintained at 37° C. using a homoeothermic blanket. The carotid artery was catheterized with polyethylene tubings filled with heparinized saline (50 UI/ml) to record continuously blood pressure (BP) via a pressure transducer (Elcomatic 750, Glasgow, UK). Pressure was recorded using specific data acquisition software (Elphy, CNRS, France).
For measuring SVP, a suprapubic midline incision was performed to expose seminal vesicles and a polyethylene catheter (0.50 mm), filled with mineral oil, was inserted into one seminal vesicle through the apex and connected to a pressure transducer (Elcomatic 750, Glasgow, UK). […]

[2] = tested on: Wistar rats; experiment: Maximal tolerable dose (MTD) in rats; conditions: rat, single IP administration
[3] = tested on: healthy human male subjects; experiment: Ejaculation latency in healthy human males after pure mesembrine; conditions: Subject D, 70 kg; 0.05 mg; Self; nasal spray (in aqueous 1% w/w NaCl)
[4] = tested on: healthy human male subjects; experiment: as above
Protocol: Experiments were performed to determine the effects of pure mesembrine on ejaculation in male subjects. 0.5 mg, 1 mg, 2.5 mg, and 5 mg doses of pure mesembrine (Cayman Chemical Company, MI, USA) were administered by oral, nasal or sublingual routes to healthy human male subjects. The formulation for oral (swallowed) and sublingual (held under tongue for 5 minutes) was 2 mg mesembrine/mL 40% aqueous for oral and sublingual. The nasal spray formulation was 0.4 mg mesembrine/mL 1% w/w NaCl saline delivered via metered nasal spray device. Mesembrine was administered 20 minutes prior to sexual activity. The sexual activity was either solo masturbation (“self”) or partnered intercourse with a female partner (“partnered”). Latency time of ejaculation was measured and calculated by time from start of sexual activity to ejaculation. […] In all test cases, ejaculation coincided with orgasm. In all cases where ejaculation was not achieved, orgasm was also not achieved.

[5] = mesembrine 20 μg/kg single IP 1 h before PCA, 30-min observation
[6] = mesembrine 200 μg/kg single IP 1 h before PCA, 30-min observation
[7] = mesembrine 2 mg/kg single IP 1 h before PCA, 30-min observation
[8] = mesembrine 10 mg/kg single IP 1 h before PCA, 30-min observation
[9] = mesembrine 20 mg/kg single IP 1 h before PCA, 30-min observation

## COc1ccc([C@@]23C=CC(=O)C[C@@H]2N(C)CC3)cc1OC [mesembrenone]
[1]; 20 mg/kg IP 1 h before PCA
  Seminal vesicle pressure response vs vehicle, FIG. 7, FIG. 8: decreased
[1]; 20 mg/kg IP 1 h before PCA, 30-min observation
  Ejaculation latency vs vehicle, FIG. 6: delayed ejaculation

## COc1ccc([C@@]23CC[C@@H](O)C[C@@H]2N(C)CC3)cc1OC [mesembranol]
[1]
  Seminal vesicle pressure response vs vehicle, FIG. 10, FIG. 11: decreased
[1]; 30-min observation
  Ejaculation latency vs vehicle, FIG. 9: delayed ejaculation

## COc1ccc(C23C=CC(O)CC2N(C)CC3)cc1OC (centres unmarked) [mesembrenol]
[1]
  Seminal vesicle pressure response vs vehicle, FIG. 10, FIG. 11: decreased
[1]; 30-min observation
  Ejaculation latency vs vehicle, FIG. 9: delayed ejaculation

## COc1ccc([C@@]23CCC(=O)C[C@@H]2N(C)CC3)cc1OC [Mesembrine, mesembrine]
[2]
  maximal tolerable dose (MTD): 20 mg/kg (MTD)
[1]; 20 mg/kg IP 1 h before PCA
  ejaculation during the 30-minute observation period (in words): did not ejaculate
  rats that did not ejaculate during the 30-min observation period following PCA injection: 100%
[1]; all dosage conditions tested (20 μg/kg to 20 mg/kg IP)
  Ejaculation latency (ejaculatory response vs vehicle control), FIG. 3: delayed ejaculatory response
[1]; all mesembrine treatment cases (20 μg/kg to 20 mg/kg IP)
  Seminal vesicle pressure response assessed as amplitude and AUC vs vehicle control, FIG. 4, FIG. 5: decreased
[1]; [5]
  N of ejaculating rats: 9/9
  N of rats not ejaculating: 0/9
  Percentage of ejaculating rats: 100%
[1]; [6]
  N of ejaculating rats: 10/11
  N of rats not ejaculating: 1/11
  Percentage of ejaculating rats: 91%
[1]; [7]
  N of ejaculating rats: 4/12
  N of rats not ejaculating: 8/12
  Percentage of ejaculating rats: 33%
[1]; [8]
  N of ejaculating rats: 7/12
  N of rats not ejaculating: 5/12
  Percentage of ejaculating rats: 58%
[1]; [9]
  N of ejaculating rats: 0/10
  N of rats not ejaculating: 10/10
  Percentage of ejaculating rats: 0%
[3]
  Qualitative experience: Effects noticed more rapidly than oral dosing.
[4]; Subject A, 77 kg, 0.5 mg, Self, sublingual (5 min under tongue)
  Qualitative experience: Orgasm with drug was more intense than average
[4]; Subject A, 77 kg, 1 mg, Self, sublingual (5 min under tongue)
  Qualitative experience: Onset after dosing with drug felt at around 9 min;
[4]; Subject B, 75 kg, 0.5 mg, Self, oral
  Qualitative experience: Significant lengthening of latency time noticed
[4]; Subject C, 100 kg, 0.5 mg, Self, oral
  Qualitative experience: Did not complete ejaculation as an effect of drug.
[4]; Subject D, 70 kg, 1 mg, Self, oral
  Qualitative experience: Satisfactory dosing to maintain control and easily
[4]; Subject D, 70 kg, 2.5 mg, Partnered, oral
  Qualitative experience: Increased satisfaction from female partner noted.
[4]; Subject D, 70 kg, 5 mg, Partnered, oral
  Qualitative experience: Did not complete ejaculation as an effect of drug.
[4]; all doses tested, oral, nasal or sublingual, 20 minutes prior to sexual activity
  ejaculation latency (in words): extended the ejaculation latency at all doses tested
